Laboratory results: US12116355B2, “Deuterated 1-piperazino-3-phenyl indanes for treatment of schizophrenia” (H. Lundbeck A/S, priority 2011, dated 2024)
Read-outs that look alike come from different tables or passages of the source.

Legend:
[1] = test system: D2 receptors in rat brain; test: In vivo binding to D2 receptors in rat brain; details: 20 mg/kg subcutaneous 30 minutes before [3H]-raclopride i.v.
Experimental: Description of In Vivo Binding to D2 Receptors in Rat Brain
Briefly, 6 rats (male Wistar, 180-200 g) were treated with 20 mg/kg test compound subcutaneous 30 minutes before receiving 9.4 micro Ci [^3H]-raclopride intravenously via the tail vein.
15 minutes after the injection of the radio ligand, the animals were killed by cervical dislocation, the brain quickly removed, and striatum and cerebellum dissected out and homogenized in 5 mL (cerebellum in 20 mL) ice-cold buffer (50 mM K3PO4, pH 7.4). 1.0 mL of the homogenate was filtered through 0.1% PEI-soaked Whatman GF/C filters. This was completed within 60 seconds subsequent to the decapitation. Filters were washed 2 times with 5 mL ice-cold buffer and counted in a scintillation counter. A group of vehicle-treated animals was used to determine [^3H]-raclopride total binding in striatum and non-specific binding in cerebellum.

[2] = target: recombinant human liver CYP3A4 (Homo sapiens (Human), UniProt P08684); test: Metabolism by recombinant human liver CYP3A4; format: in vitro ADME
Experimental: (§1) The protein concentration was 0.5 mg/mL and the final volume was 0.5 mL. […] After 0, 15, 30, 60, 90, 120, and 180 minutes, the reactions were terminated by transferring the subcellular fraction to 0.5 mL of stopping reagent containing internal standard. The incubations were carried out in triplicate. The samples were centrifuged at 4000×g (4° C., 15 minutes) and the supernatants were analyzed by HPLC-MS/MS. Data were expressed as MS area relative to an internal standard.

[3] = target: recombinant human liver CYP2C19 (Homo sapiens (Human), UniProt P33261); test: Metabolism by recombinant human liver CYP2C19; format: in vitro ADME
Experimental: as §1

[4] = Metabolism in pooled human liver microsomes, formation of desmethyl metabolite; format: in vitro ADME
Experimental: Pooled human liver microsomes (50 donors, from Xenotech) were incubated with 1 μM or 10 μM of compound at 37° C. […] The protein concentration was 0.2 mg/mL and the final volume was 0.5 mL. Following a 10-minute pre-incubation, the reaction was initiated by adding Compound. After 0, 15, 30, 60, 90, 120, and 180 minutes, the reactions were terminated by transferring the subcellular fraction to 0.5 mL of stopping reagent containing internal standard. The incubations were carried out in triplicate. The samples were centrifuged at 4000 g (4° C., 15 min) and the supernatants were analyzed by HPLC-MS/MS. Data were expressed as MS area relative to an internal standard.

[5] = test system: PCP-induced hyperactivity in mice; test: PCP-induced hyperactivity in mice; details: hydrogen tartrate s.c. 30 minutes before test, PCP 2.3 mg/kg s.c.
Experimental: Locomotor activity was measured for 60 minutes as number of beam breaks (counts). Eight-to-16 male mice were used in each group. ##indicates P<0.01 versus Vehicle-PCP (One-way analysis of variance [ANOVA] followed by Bonferroni post-hoc test).

[6] = pKa determination by potentiometric titration / Dip Probe Absorption Spectroscopy; format: physicochemical; details: ion strength 0.16, extrapolated to zero MeOH
Experimental: pKa was determined by potentiometric titration of the base at ion strength 0.16 using MeOH as co-solvent. Three series of three repeated titrations on the same solution of the sample was performed in a conventional way from low to high pH and a difference curve was created from each of these titrations by blank subtraction. The apparent pKa-value at each MeOH:water ratio is calculated from the difference curves, and the pKa value is determined by extrapolation to zero MeOH content.
The lower pKa was determined by Dip Probe Absorption Spectroscopy detection during titration of the base at ion strength 0.16 using MeOH as co-solvent. The change in absorption spectra as a function of ionisation is used to calculate the pKa value. Two series of three repeated titrations on the same solution of the sample was performed from low to high pH, with a photo diode array as additional detection. The apparent pKa value at each MeOH:water ratio is calculated by target factor analysis on the change in absorption spectra, and the pKa value is determined by extrapolation to zero MeOH content.

[7] = Log P / log D profile by titration with n-octanol; format: physicochemical; details: n-octanol:water, 27° C., ion strength approximately 0.16
Experimental: A series of three repeated titrations on the same sample in solution was performed, from low to high pH. The first titration was performed with a small amount of n-octanol present in the solution, the second and third with increasing amounts.
A difference curve was created from each of these titrations by blank subtraction, and from these difference curves, the apparent pKa values (poKa) were calculated. From the change in the apparent pKa values (ΔpKa) with the n-octanol:water ratio combined with the real pKa value, the Log P value was calculated and the Log D profile was derived.

[8] = Human pharmacokinetic multiple oral dose study; format: in vivo; details: male, healthy young men, 3 mg daily oral for 18 days, plasma after last dose, read-out: mean AUC 0-24 of parent compound
Excerpt: The pharmacokinetics of Compound (IV) and Compound (X) were compared in a multiple oral dose study in healthy young men.

[9] = Solubility of salts of Compound (IV); format: physicochemical
catalepsy in rats [10] = test: Catalepsy test in rats; format: in vivo, rats (male Sprague Dawley); details: tartrate s.c. 30 minutes before test
Excerpt: Catalepsy is thought to reflect drug-induced suppression of the ability to initiate a behavioral response. The catalepsy test in rats is a common and widely used preclinical screening test for the EPS liability of potentially antipsychotic drugs. Although catalepsy is usually assessed following acute drug administration, the test has proven to be a reliable predictor for the propensity of an antipsychotic drug to induce EPS (that is, pseudo parkinsonism, dystonia) in humans (Elliott, P. J. et al, J. Neural. Transm. Park. Dis. Dement. Sect. 1990, 2, 79-89; herein incorporated by reference in its entirety). […] The minimal effective dose inducing catalepsy was 10 mg/kg (FIG. 17). […] Eight male Sprague Dawley rats were used in each group. # indicates P<0.05, ## indicates P<0.01 versus vehicle (One-way ANOVA followed by Bonferroni post-hoc test). This dose is 100 times higher than the dose indicating antipsychotic activity (FIG. 16).

[11] = test system: cryopreserved dog hepatocytes; test: Metabolism in cryopreserved dog hepatocytes, formation of desmethyl metabolite; format: in vitro ADME, dog (male Beagle dog); details: for amount of desmethyl metabolite (Compound (XI)) produced, versus Compound (X): cryopreserved dog hepatocytes
Experimental: Cryopreserved dog (male Beagle dog) hepatocytes (1 million cells/mL in suspension, 50 μL/well) were pre-incubated for 15 minutes in a 96-well plate at 37° C. water bath in DMEM high glucose buffered with 1 M HEPES.

D1 = details: in vitro, J. Med. Chem. 1995, 38, 4380-4392; cited from earlier work
catalepsy in rats [12] = details: fumarate salt, J. Med. Chem. 1995, 38, 4380-4392; cited from earlier work
5-HT2 = details: J. Med. Chem. 1995, 38, 4380-4392; cited from earlier work
D2 = details: in vitro, J. Med. Chem. 1995, 38, 4380-4392; cited from earlier work

recombinant human liver CYP3A4, sequence (P08684 whole entry): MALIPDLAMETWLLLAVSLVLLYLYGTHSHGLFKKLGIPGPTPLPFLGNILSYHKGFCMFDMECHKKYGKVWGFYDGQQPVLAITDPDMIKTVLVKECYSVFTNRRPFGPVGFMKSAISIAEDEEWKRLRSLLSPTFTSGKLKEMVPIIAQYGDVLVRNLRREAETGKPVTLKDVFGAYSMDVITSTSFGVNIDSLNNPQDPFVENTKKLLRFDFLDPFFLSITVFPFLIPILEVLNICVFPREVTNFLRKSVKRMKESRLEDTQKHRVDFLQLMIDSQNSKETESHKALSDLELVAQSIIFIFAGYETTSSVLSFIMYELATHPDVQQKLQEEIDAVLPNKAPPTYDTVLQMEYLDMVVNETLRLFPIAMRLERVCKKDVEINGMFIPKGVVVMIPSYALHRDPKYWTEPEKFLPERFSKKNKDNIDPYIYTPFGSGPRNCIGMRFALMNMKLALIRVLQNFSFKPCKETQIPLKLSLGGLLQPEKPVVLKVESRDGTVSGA
recombinant human liver CYP2C19, sequence (P33261 whole entry): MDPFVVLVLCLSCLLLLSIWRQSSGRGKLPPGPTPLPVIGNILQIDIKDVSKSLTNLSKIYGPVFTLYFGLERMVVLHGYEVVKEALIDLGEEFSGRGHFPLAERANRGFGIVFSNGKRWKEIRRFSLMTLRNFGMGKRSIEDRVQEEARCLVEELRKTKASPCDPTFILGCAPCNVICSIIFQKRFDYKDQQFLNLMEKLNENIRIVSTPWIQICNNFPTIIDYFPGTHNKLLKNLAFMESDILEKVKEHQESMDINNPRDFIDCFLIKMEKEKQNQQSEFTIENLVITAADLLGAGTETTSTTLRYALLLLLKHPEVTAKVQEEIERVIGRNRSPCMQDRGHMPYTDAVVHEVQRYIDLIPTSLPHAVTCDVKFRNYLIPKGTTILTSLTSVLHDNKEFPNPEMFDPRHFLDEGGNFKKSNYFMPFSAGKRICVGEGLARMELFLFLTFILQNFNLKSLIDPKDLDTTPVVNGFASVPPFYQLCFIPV

| amount of desmethyl metabolite produced, versus Compound (X) ([2]; 1 mM (so in the source)) | amount of desmethyl metabolite produced, versus Compound (X) ([2]; 10 mM (so in the source)) | amount of desmethyl metabolite produced, versus Compound (X) ([3]; 1 μM) | amount of desmethyl metabolite produced, versus Compound (X) ([3]; 10 μM) | amount of desmethyl metabolite produced, versus Compound (X) ([4]; 1 μM) | amount of desmethyl metabolite produced, versus Compound (X) ([4]; 10 μM) | AUC(0-t) [8] [ng·h/mL] | SMILES | occupancy of D2 receptors by in vivo binding [1] [%] | other results |
| --- | --- | --- | --- | --- | --- | --- | --- | --- | --- |
| lower | lower | Corresponding results | lower | lower | lower | – | [2H]c1c([2H])c([2H])c([C@@H]2C[C@@H](N3CCN(C)C(C)(C)C3)c3cc(Cl)ccc32)c([2H])c1[2H] (single isomer, unassigned) [Compound (II)] | 75 | – |
| – | – | – | – | – | – | – | CN1CCN([C@@H]2C[C@@H](c3ccccc3)c3ccc(Cl)cc32)CC1(C)C (single isomer, unassigned) [Compound (IV)] | – | reversal of PCP-induced hyperactivity (locomotor activity) [5]: dose-dependently reverses |
| lower | lower | lower | Corresponding results | lower | lower | 104 | [2H]c1c([2H])c([2H])c([C@@H]2C[C@@H](N3CCN(C([2H])([2H])[2H])C(C)(C)C3)c3cc(Cl)ccc32)c([2H])c1[2H] (single isomer, unassigned) [Compound (IV)] | 70 | pKa ([6]; Dip Probe Absorption Spectroscopy, read-out: lower pKa): 2.5 ± 0.1; pKa ([6]; potentiometric titration, read-out: high pKa): 8.9 ± 0.1; logP [7]: 5.4 ± 0.4; logD ([7]; pH 7.4, read-out: Log D7.4): 3.9 ± 0.4; solubility ([9]; pH 7.6): 100 µg/mL; pH of solubility solution ([9]; salts of Compound (IV)): 7.6; induction of catalepsy (catalepsy in rats [10]): dose-dependently induced catalepsy; minimal effective dose inducing catalepsy (catalepsy in rats [10]): 10 mg/kg |
| – | – | – | – | – | – | – | [2H]C([2H])([2H])N1CCN([C@@H]2C[C@@H](c3ccccc3)c3ccc(Cl)cc32)CC1(C)C [Compound (I), 4-((1R,3S)-6-chloro-3-phenyl-indan-1-yl)-1-methyl-d3-2,2-dimethyl-piperazine] | – | amount of desmethyl metabolite (Compound (XI)) produced, versus Compound (X) ([11]; 0.1 μM): lower; amount of desmethyl metabolite (Compound (XI)) produced, versus Compound (X) ([11]; 1 μM): lower; decrease in formation of the desmethyl metabolite (Compound (XI)) in comparison to Compound (X) ([11]; dog hepatocytes): approximately 50% |
| – | – | – | – | – | – | 98 | CN1CCN([C@@H]2C[C@@H](c3ccccc3)c3ccc(Cl)cc32)CC1(C)C [Compound (X), 4-((1R,3S)-6-Chloro-3-phenyl-indan-1-yl)-1,2,2-trimethyl-piperazine] | – | D1 antagonism (D1): potent D1/D2 antagonist; catalepsy in rats (catalepsy in rats [12]): does not induce catalepsy; 5-HT2 antagonism (5-HT2): potent 5-HT2 antagonist; D2 antagonism (D2): potent D1/D2 antagonist |
